Values of other authors, collected in patent US20210299068A1, “ANTIMICROBIAL COMPOSITIONS COMPRISING CHLORHEXIDINE” (3M INNOVATIVE PROPERTIES COMPANY, priority 2018, published 2021).

Details: at neutral pH

SMILES: O=C([O-])CN(CCO)CCN(CC(=O)[O-])CC(=O)[O-].[Na+].[Na+].[Na+] [HEDTA.Na3, N-(2-Hydroxyethyl)ethylenediaminetriacetic acid trisodium salt]
- Formation constant for the complex with calcium: 10^6
